Laboratory results published in publication PMC8151276, “An Integrated Approach toward NanoBRET Tracers for Analysis of GPCR Ligand Engagement” (Molecules, 2021).
“And” between values parts separate entries of the source, which are not always exact repeats. Equal entries are not always repeated. Where two headings read alike, the source gives them in different places.

What was measured:
Assay type in all cases: binding
[1] = molecular target: T1, CHRM3 (Homo sapiens, UniProt P20309); experiment: NanoBRET screen HiBiT-CHRM3 in HEK293
T1 construct: purchased Promega (in-house HiBiT-GPCR construct library, NanoBRET)

[2] = molecular target: T2, CHRM1 (Homo sapiens, UniProt P11229); experiment: NanoBRET screen HiBiT-CHRM1 in HEK293
T2 construct: purchased Promega (in-house HiBiT-GPCR construct library, NanoBRET)
T2 sequence (P11229 1-460): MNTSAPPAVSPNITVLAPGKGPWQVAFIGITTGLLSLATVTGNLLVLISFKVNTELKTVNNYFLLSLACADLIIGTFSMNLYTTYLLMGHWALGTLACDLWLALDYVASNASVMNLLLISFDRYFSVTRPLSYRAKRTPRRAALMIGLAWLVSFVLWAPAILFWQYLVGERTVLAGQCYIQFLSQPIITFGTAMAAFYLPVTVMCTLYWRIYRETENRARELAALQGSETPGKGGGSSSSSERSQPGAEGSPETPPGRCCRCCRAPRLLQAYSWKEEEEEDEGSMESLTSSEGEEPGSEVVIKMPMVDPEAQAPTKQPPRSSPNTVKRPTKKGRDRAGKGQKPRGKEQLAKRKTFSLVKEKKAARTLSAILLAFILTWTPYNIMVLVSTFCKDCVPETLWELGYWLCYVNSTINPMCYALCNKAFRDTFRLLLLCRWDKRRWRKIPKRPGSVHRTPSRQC

[3] = molecular target: T3, CXCR2 (Homo sapiens, UniProt P25025); experiment: NanoBRET screen HiBiT-CXCR2 in HEK293
T3 construct: purchased Promega (in-house HiBiT-GPCR construct library, NanoBRET)
T3 sequence (P25025 1-360): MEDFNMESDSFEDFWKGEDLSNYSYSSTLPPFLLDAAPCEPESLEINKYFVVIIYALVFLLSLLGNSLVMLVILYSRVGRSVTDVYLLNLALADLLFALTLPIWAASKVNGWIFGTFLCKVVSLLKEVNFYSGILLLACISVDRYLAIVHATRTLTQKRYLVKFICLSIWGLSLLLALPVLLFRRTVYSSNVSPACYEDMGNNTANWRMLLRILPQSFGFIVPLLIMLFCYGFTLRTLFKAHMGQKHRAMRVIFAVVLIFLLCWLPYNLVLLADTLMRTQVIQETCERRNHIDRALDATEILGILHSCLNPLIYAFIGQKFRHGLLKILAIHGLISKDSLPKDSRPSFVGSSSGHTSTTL
Protocol: Each tracer candidate was screened across the entire library of HiBiT-GPCR constructs using NanoBRET as the detection modality. As depicted in Figure 4A, the specificity of interactions was evaluated through decrease in BRET due to competitive displacement of a bound tracer by excess parental compound. Each tracer was analyzed for binding to each HiBiT-GPCR fusion in the absence and in the presence of competing parental compound. Briefly, HEK293 cells were transfected with HiBiT-GPCR constructs diluted into promoterless DNA to reduce expression and maximize translocation to the cell surface. Each tracer candidate was then screened at concentrations of 1 μM and 0.1 μM across cells expressing these fusions. Cells were treated for 1.5 h with tracer either alone or in the presence of 20 μM competing parental compound (i.e., control). BRET was measured upon addition of purified LgBiT and subsequent complementation with HiBiT genetically fused to a GPCR. The specificity of interactions was assessed through a decrease in BRET signal due to competitive displacement of the bound tracer. To further gauge the robustness of these interactions, the fold response over the control (i.e., BRETtracer/BRETcontrol) was calculated. We chose a 1.5-fold response, which translates to ≥7-fold signal over noise as the minimal threshold required to score an interaction as positive. […]. Below we highlight the screening results obtained for our exemplary fluorescent tracers based on Clozapine, Amitriptyline and AZD1283.
HiBiT-GPCR DNA constructs were diluted in 10 mM Tris pH 8 to a final concentration of 0.01 μg/μL, arrayed in 96-well plates and stored at −20 °C. For transfection, HEK293 cells were suspended in Opti-MEM (without phenol red) supplemented with 2% fetal bovine serum (Seradigm) and 100 units/mL penicillin–streptomycin (Gibco) at a final concentration of 220,000 cells/mL and dispensed into white 96-well plates at 90 μL/well. Subsequent transfections and screens were carried using an Agilent Bravo Automated Liquid Handling Platform. First, the 96-well HiBiT DNA arrays were diluted 25-fold in Opti-MEM (without serum or phenol red) to a final concentration of 0.0004 μg/μL and 20 μL of the diluted DNAs were transferred into new 96-well plates. Next, promoterless carrier DNA (1 μg/μL) was diluted 25-fold (0.04 μg/μL) and then dispensed into the diluted arrays at 20 μL/well. Following brief mixing, Viafect transfection reagent (Promega) diluted 16-fold into Opti-MEM was dispensed into the plates at 40 μL/well. After mixing by pipetting, plates were incubated for 10 min on the pipetting station deck. The DNA-transfection reagent complexes were then added to plates containing cells. To facilitate the screen, 10 μL of DNA-transfection reagent complexes were added in duplicates to the top 4 and bottom 4 rows, resulting in two identical 48-well arrays per plate. Plates with transfected cells were incubated for 18–20 h at 37 °C/5% CO2. A screen of each tracer across the entire library using two different concentrations requires duplicate plates of transfected cells. Depending on the number of tracers being screened, transfections can be scaled up using the same ratios. The next day, for each tracer, four 20× screening solutions in tracer dilution buffer (Promega) were prepared: two duplicates at final concentration of 20 μM and two duplicates at a final concentration of 2 μM. A competing unmodified compound was added to one of each duplicate at a final concentration of 400 μM. The four resulting solutions were diluted 4-fold in Opti-MEM without serum or phenol red to generate 5× solutions (5 µM and 0.5 µM tracer +/− 100 μM competing compound). To screen the library, a BioTek MultiFlo FX liquid dispenser was used to dispense 22.5 µL of tracer solution to the top 4 rows and 22.5 µL tracer + competing compound solution to the 4 bottom rows. Plates were briefly mixed on an orbital shaker and incubated for 1.5 h at room temperature. […]

[4] = molecular target: T4, HRH1 (Homo sapiens, UniProt P35367); experiment: NanoBRET screen HiBiT-HRH1 in HEK293
T4 construct: purchased Promega (in-house HiBiT-GPCR construct library, NanoBRET)
T4 sequence (P35367 whole entry): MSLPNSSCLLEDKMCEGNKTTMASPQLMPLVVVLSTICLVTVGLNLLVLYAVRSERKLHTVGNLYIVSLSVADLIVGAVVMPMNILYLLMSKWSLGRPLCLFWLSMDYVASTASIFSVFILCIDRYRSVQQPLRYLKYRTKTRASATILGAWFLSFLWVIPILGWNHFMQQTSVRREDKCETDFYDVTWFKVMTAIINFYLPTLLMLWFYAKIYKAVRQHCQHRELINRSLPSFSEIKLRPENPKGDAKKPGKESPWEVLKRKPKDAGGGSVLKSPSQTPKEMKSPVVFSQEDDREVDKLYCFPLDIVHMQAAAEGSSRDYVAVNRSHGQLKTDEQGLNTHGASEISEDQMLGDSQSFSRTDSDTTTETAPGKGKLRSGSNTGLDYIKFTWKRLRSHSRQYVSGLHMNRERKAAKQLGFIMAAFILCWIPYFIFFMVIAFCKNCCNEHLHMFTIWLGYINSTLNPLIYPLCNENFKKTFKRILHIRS

T1 sequence (P20309 whole entry): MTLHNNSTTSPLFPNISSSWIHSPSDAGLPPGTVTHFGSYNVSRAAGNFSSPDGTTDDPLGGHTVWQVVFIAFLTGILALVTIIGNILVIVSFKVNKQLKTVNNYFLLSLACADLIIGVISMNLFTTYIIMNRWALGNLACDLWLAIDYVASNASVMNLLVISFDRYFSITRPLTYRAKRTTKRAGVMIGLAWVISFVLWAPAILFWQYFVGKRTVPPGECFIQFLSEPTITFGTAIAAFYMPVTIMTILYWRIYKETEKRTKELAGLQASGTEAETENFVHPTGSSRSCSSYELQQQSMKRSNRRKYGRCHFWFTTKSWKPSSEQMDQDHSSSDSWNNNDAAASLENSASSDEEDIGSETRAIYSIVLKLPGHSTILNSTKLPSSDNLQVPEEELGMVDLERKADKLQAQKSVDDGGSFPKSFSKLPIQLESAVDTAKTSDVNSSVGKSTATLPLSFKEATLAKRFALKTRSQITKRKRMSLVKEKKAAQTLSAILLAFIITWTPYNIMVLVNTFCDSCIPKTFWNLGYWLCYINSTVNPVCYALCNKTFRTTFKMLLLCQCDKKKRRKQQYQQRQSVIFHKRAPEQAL

SMILES: COc1ccc2c(n1)c(CCNC(C)=O)cn2CCNC(=O)CCc1ccc2n1[B-](F)(F)[N+]1=C(c3ccc[nH]3)C=CC1=C2 [Azamelatonin-1-NB590]
- NanoBRET Fold Response ([1]; 0.1μM tracer): 1.05
- NanoBRET Fold Response ([1]; 1μM tracer): 0.96
- NanoBRET Fold Response ([2]; 0.1μM tracer): 1.17
- NanoBRET Fold Response ([2]; 1μM tracer): 0.93
- NanoBRET Fold Response ([3]; 0.1μM tracer): 0.97
- NanoBRET Fold Response ([3]; 1μM tracer): 0.98
- NanoBRET Fold Response ([4]; 0.1μM tracer): 1.14
- NanoBRET Fold Response ([4]; 1μM tracer): 1.14

SMILES: CC(C)N(CC[C@H](c1ccccc1)c1cc(CCNC(=O)c2ccc(CNC(=O)CCc3ccc4n3[B-](F)(F)[N+]3=C(c5ccc[nH]5)C=CC3=C4)cc2)ccc1O)C(C)C [Tolterodine-BZ-NB590]
- NanoBRET Fold Response ([1]; CHRM3, tracer 0.1μM): 1.18
- NanoBRET Fold Response ([1]; CHRM3, tracer 1μM): 1.25
- NanoBRET Fold Response [2]: 2.14 and 2.47
- NanoBRET Fold Response ([3]; CXCR2, tracer 0.1μM): 0.99
- NanoBRET Fold Response ([3]; CXCR2, tracer 1μM): 1.06
- NanoBRET Fold Response ([4]; HRH1, tracer 0.1μM): 0.99
- NanoBRET Fold Response ([4]; HRH1, tracer 1μM): 1.10

SMILES: O=C(CCc1ccc2n1[B-](F)(F)[N+]1=C(c3ccc[nH]3)C=CC1=C2)NCCOCCOCCNC(=O)OCCOCCN1CCN(C2=Nc3ccccc3Sc3ccccc32)CC1 [Quetiapine-a-2-NB590]
- NanoBRET Fold Response ([3]; CXCR2, tracer 0.1μM): 1.03
- NanoBRET Fold Response ([3]; CXCR2, tracer 1μM): 0.97

SMILES: Cc1cc2c(s1)Nc1ccccc1N=C2N1CCN(CCCNC(=O)CCOCCOCCOCCOCCNC(=O)CCc2ccc3n2[B-](F)(F)[N+]2=C(c4ccc[nH]4)C=CC2=C3)CC1 [Olanzapine-a-2-NB590]
- NanoBRET Fold Response ([3]; CXCR2, tracer 0.1μM): 0.97
- NanoBRET Fold Response ([3]; CXCR2, tracer 1μM): 1.08

SMILES: O=C(CCc1ccc2n1[B-](F)(F)[N+]1=C(c3ccc[nH]3)C=CC1=C2)NCc1ccc(C(=O)NCCOCCOCCNCC(O)COc2cccc3ccccc23)cc1 (stereo not drawn) [Propranolol-3-NB590]
- NanoBRET Fold Response ([3]; CXCR2, 0.1μM): 1.07
- NanoBRET Fold Response ([3]; CXCR2, 1μM): 1.03

SMILES: CN1CCN(C2=Nc3cc(Cl)ccc3N(CC(=O)NCCOCCOCCOCCOCCNC(=O)CCc3ccc4n3[B-](F)(F)[N+]3=C(c5ccc[nH]5)C=CC3=C4)c3ccccc32)CC1 [Clozapine-c-2-NB590]
- NanoBRET Fold Response ([3]; CXCR2, 0.1μM tracer): 1.03
- NanoBRET Fold Response ([3]; CXCR2, 1μM tracer): 0.92

SMILES: O=C(CCc1ccc2n1[B-](F)(F)[N+]1=C(c3ccc[nH]3)C=CC1=C2)NCc1ccc(C(=O)NCCOCCC(=O)N[C@@H]2CC[C@@]3(O)[C@H]4Cc5ccc(O)c6c5[C@@]3(CCN4CC3CC3)[C@H]2O6)cc1 [Naltrexone-3-NB590]
- NanoBRET Fold Response ([3]; CXCR2, tracer 0.1μM): 0.81
- NanoBRET Fold Response ([3]; CXCR2, tracer 1μM): 0.78

SMILES: CC(C)N(CC[C@H](c1ccccc1)c1cc(CCNC(=O)CCOCCOCCOCCOCCNC(=O)CCc2ccc3n2[B-](F)(F)[N+]2=C(c4ccc[nH]4)C=CC2=C3)ccc1O)C(C)C [Tolterodine-2-NB590]
- NanoBRET Fold Response ([1]; CHRM3, tracer 0.1μM): 1.67
- NanoBRET Fold Response ([1]; CHRM3, tracer 1μM): 1.52
- NanoBRET Fold Response [2]: 1.59 and 2.16
- NanoBRET Fold Response ([3]; CXCR2, tracer 0.1μM): 0.96
- NanoBRET Fold Response ([3]; CXCR2, tracer 1μM): 0.98
- NanoBRET Fold Response ([4]; HRH1, tracer 0.1μM): 1.08
- NanoBRET Fold Response ([4]; HRH1, tracer 1μM): 1.58

SMILES: Cc1nc2n(c(=O)c1CCN1CCC(c3noc4cc(F)ccc34)CC1)CCCC2OC(=O)NCCOCCOCCOCCOCCNC(=O)CCc1ccc2n1[B-](F)(F)[N+]1=C(c3ccc[nH]3)C=CC1=C2 (stereo not drawn) [Risperidone-2-NB590]
- NanoBRET Fold Response ([3]; CXCR2, tracer 0.1μM): 1.09
- NanoBRET Fold Response ([3]; CXCR2, tracer 1μM): 0.99

SMILES: O=C(CCOCCOCCOCCOCCNC(=O)CCc1ccc2n1[B-](F)(F)[N+]1=C(c3ccc[nH]3)C=CC1=C2)NCCCN1CCN(C2=Nc3cc(Cl)ccc3Nc3ccccc32)CC1 [Clozapine-a-2-NB590]
- NanoBRET Fold Response ([1]; CHRM3, 0.1μM tracer): 1.06
- NanoBRET Fold Response ([1]; CHRM3, 1μM tracer): 0.92
- NanoBRET Fold Response ([2]; CHRM1, 0.1μM tracer): 1.09
- NanoBRET Fold Response ([2]; CHRM1, 1μM tracer): 0.98
- NanoBRET Fold Response ([3]; CXCR2, 0.1μM tracer): 1.02
- NanoBRET Fold Response ([3]; CXCR2, 1μM tracer): 0.87
- NanoBRET Fold Response ([4]; HRH1, 0.1μM tracer): 4.67
- NanoBRET Fold Response ([4]; HRH1, 1μM tracer): 4.78

SMILES: COc1ccc2[nH]c(-c3ccc(CNC(=O)CCOCCOCCOCCOCCNC(=O)CCc4ccc5n4[B-](F)(F)[N+]4=C(c6ccc[nH]6)C=CC4=C5)cc3)c(CCNC(C)=O)c2n1 [AzomelatoninICO9-2-NB590]
- NanoBRET Fold Response ([1]; 0.1μM tracer): 0.95
- NanoBRET Fold Response ([1]; 1μM tracer): 1.01
- NanoBRET Fold Response ([2]; 0.1μM tracer): 1.20
- NanoBRET Fold Response ([2]; 1μM tracer): 0.97
- NanoBRET Fold Response ([3]; 0.1μM tracer): 1.38
- NanoBRET Fold Response ([3]; 1μM tracer): 1.00
- NanoBRET Fold Response ([4]; 0.1μM tracer): 0.94
- NanoBRET Fold Response ([4]; 1μM tracer): 0.89

SMILES: CN1CCN(C2=Nc3cc(Cl)ccc3Nc3ccc(CNC(=O)CCOCCOCCOCCOCCNC(=O)CCc4ccc5n4[B-](F)(F)[N+]4=C(c6ccc[nH]6)C=CC4=C5)cc32)CC1 [Clozapine-b-2-NB590]
- NanoBRET Fold Response ([3]; CXCR2, 0.1μM tracer): 0.98
- NanoBRET Fold Response ([3]; CXCR2, 1μM tracer): 1.06

SMILES: CN(C)CCC=C1c2ccccc2CCc2ccc(C(=O)NCCNC(=O)CCOCCOCCOCCOCCNC(=O)CCc3ccc4n3[B-](F)(F)[N+]3=C(c5ccc[nH]5)C=CC3=C4)cc21 [Amitriptyline-b-2-NB590]
- NanoBRET Fold Response ([3]; tracer at 0.1μM, listed as amitriptyline-b-2-NB590): 0.97
- NanoBRET Fold Response ([3]; tracer at 1μM, listed as amitriptyline-b-2-NB590): 0.83

SMILES: CN(CCC=C1c2ccccc2CCc2ccccc21)C(=O)CCOCCOCCOCCOCCNC(=O)CCc1ccc2n1[B-](F)(F)[N+]1=C(c3ccc[nH]3)C=CC1=C2 [Amitriptyline-e-2-NB590]
- NanoBRET Fold Response ([3]; tracer at 1μM): 1.07

SMILES: CN(C)CCC=C1c2ccccc2CCc2ccc(C(=O)NCCNC(=O)CCOCCOCCOCCOCCNC(=O)CCc3ccc4n3[B-](F)(F)[N+]3=C(c5ccc[nH]5)C=CC3=C4)cc21 [Amitriptyline-a-2-NB590]
- NanoBRET Fold Response ([3]; tracer at 0.1μM): 0.99
- NanoBRET Fold Response ([3]; tracer at 1μM): 1.00
